# Residues, ends and D or L forms follow the SMILES beside them. *: point of attachment. FITC = O=C1OC2(c3ccc(O)cc3Oc3cc(O)ccc32)c2ccc(NC(=S)*)cc21
# Target: T1, Impα(70–529)(W184R/W231R) (Mus musculus, UniProt P52293, W184R/W231R)
# T1 construct: His tag; made in house; host or cells: E. coli BL21(DE3), pET30
# Assay: Fluorescence polarization titration of FITC-labeled XRCC1 NLS peptides with major-site mutant Impα(70–529)(W184R/W231R)
# Assay type: binding, murine
# Conditions: relative to wild-type Impα(70–529)
# Description: A His-tagged murine Importin α protein with the Importin β binding domain (IBB) deleted, which is identical to Impα(70–529) studied by Fontes et al.[30], was expressed in E. coli. […] The major binding pocket double mutant W184R/W231R was created using a Quikchange site-directed mutagenesis kit (Agilent).
# Protein concentrations were determined by the Edelhoch procedure[59].
# Apparent peptide dissociation constants were determined based on fluorescence polarization measurements using FITC-labeled peptides. Impα(70–529) was exchanged into FP buffer (20 mM Tris, pH 7.7, 125 mM NaCl, 1 mM EDTA, 2 mM tris(2-carboxyethyl)phosphine, 5% sucrose, 10 mM NaN3). […] 50 μL volumes of the binding reactions were pipetted into wells of a 96-well black flat bottomed plate and fluorescence polarization was read at room temperature with the POLARstar Omega microplate reader (BMG Labtech) using excitation at 485 nm and emission at 520 nm. […] The fluorescence polarization values generated by the experiments are arbitrary, so for easy comparisons among samples, the data were normalized to a 0–100 scale after curve-fitting. […]
# Where Ycalc represents the fluorescence polarization value that is generated by the model. […]
# The FITC tags were selected in an attempt to minimize possible non-specific interactions of the fluorescein with the Impα(70–529). […] Concentrations of unlabeled peptides were determined by UV absorbance[62].
row,SMILES,"binding affinity to Impα(70–529)(W184R/W231R), in words"
1,CC(C)C[C@H](NC(=O)[C@H](CCCCN)NC(=O)[C@@H]1CCCN1C(=O)[C@H](CCCNC(=N)N)NC(=O)[C@H](CCCCN)NC(=O)[C@@H]1CCCN1C(=O)[C@@H](NC(=O)[C@@H](N)CO)C(C)C)C(=O)N1CCC[C@H]1C(=O)NCC(=O)N[C@@H](CCCCNC(=S)Nc1ccc2c(c1)C(=O)OC21c2ccc(O)cc2Oc2cc(O)ccc21)C(=O)O [Peptide M2] (H-SVPKRPKLPGK(FITC)-OH; N-terminus and C-terminus assumed),interacts only weakly
2,CC(C)C[C@H](NC(=O)[C@H](CCCCN)NC(=O)[C@H](CCCNC(=N)N)NC(=O)[C@H](CCCCN)NC(=O)CNC(=O)CNC(=S)Nc1ccc2c(c1)C(=O)OC21c2ccc(O)cc2Oc2cc(O)ccc21)C(=O)O [Peptide M1] ({FITC}-GGKRKL-OH; C-terminus assumed),essentially unaffected
